The target of assay [1] is Methionyl-tRNA synthetase (Staphylococcus aureus). As to the kind of experiment: In vitro inhibitory concentration against Staphylococcus aureus Methionyl-tRNA synthetase.
Assay [2] in a line: In vitro inhibitory concentration against Methionyl-tRNA synthetase in a pyrophosphate exchange assay.

Consider `CCc1cc(I)c2c(c1)C(NCCCNc1cc(O)c3ccccc3n1)CCN2` (stereo not drawn) [2-[3-(6-Ethyl-8-iodo-1,2,3,4-tetrahydro-quinolin-4-ylamino)-propylamino]-1H-quinolin-4-one], for which, in assay [1], half-maximal inhibition (IC50) required 12 nM. In other words, the double-digit nanomolar range.

For `Oc1cc(NCCCNC2CCNc3c(Br)cc(Br)cc32)nc2ccccc12` (stereo not drawn) [2-[3-(6,8-Dibromo-1,2,3,4-tetrahydro-quinolin-4-ylamino)-propylamino]-1H-quinolin-4-one], the IC50 (as a rule, the concentration that inhibits the measured activity by half) in assay [2] turned out to be 1 nM. That is a single-digit nanomolar value.

Take `Oc1cc(NCCCNCc2ccc(Cl)c(Cl)c2)nc2ccccc12` [2-[3-(3,4-Dichloro-benzylamino)-propylamino]-1H-quinolin-4-one]: the IC50 in assay [2] was determined as 500 nM.
